Data: patent US10526389B2, “Peptides and combinations of peptides for use in immunotherapy against lung cancer, including NSCLC and other cancers” (Immatics Biotechnologies GmbH, priority 2015, dated 2020)

System: CD8+ T cells
Test: In vitro immunogenicity of HLA-A*24 peptides (CD8+ T-cell priming with aAPCs, multimer staining)
Format: cell-based, human
Description: In order to obtain information regarding the immunogenicity of the TUMAPs of the present invention, the inventors performed investigations using an in vitro T-cell priming assay based on repeated stimulations of CD8+ T cells with artificial antigen presenting cells (aAPCs) loaded with peptide/MHC complexes and anti-CD28 antibody.
Generation of pMHC/anti-CD28 coated beads, T-cell stimulations and readout was performed in a highly defined in vitro system using four different pMHC molecules per stimulation condition and 8 different pMHC molecules per readout condition.
The purified co-stimulatory mouse IgG2a anti human CD28 Ab 9.3 (Jung et al., 1987) was chemically biotinylated using Sulfo-N-hydroxysuccinimidobiotin as recommended by the manufacturer (Perbio, Bonn, Germany). Beads used were 5.6 μm diameter streptavidin coated polystyrene particles (Bangs Laboratories, Illinois, USA).
800.000 beads/200 μl were coated in 96-well plates in the presence of 4×12.5 ng different biotin-pMHC, washed and 600 ng biotin anti-CD28 were added subsequently in a volume of 200 μl. Stimulations were initiated in 96-well plates by co-incubating 1×10^6 CD8+ T cells with 2×10^5 washed coated beads in 200 μl TCM supplemented with 5 ng/ml IL-12 (PromoCell) for 3 days at 37° C. Half of the medium was then exchanged by fresh TCM supplemented with 80 U/ml IL-2 and incubating was continued for 4 days at 37° C. This stimulation cycle was performed for a total of three times. For the pMHC multimer readout using 8 different pMHC molecules per condition, a two-dimensional combinatorial coding approach was used as previously described (Andersen et al., 2012) with minor modifications encompassing coupling to 5 different fluorochromes. Finally, multimeric analyses were performed by staining the cells with Live/dead near IR dye (Invitrogen, Karlsruhe, Germany), CD8-FITC antibody clone SK1 (BD, Heidelberg, Germany) and fluorescent pMHC multimers. For analysis, a BD LSRII SORP cytometer equipped with appropriate lasers and filters was used. Peptide specific cells were calculated as percentage of total CD8+ cells. Evaluation of multimeric analysis was done using the FlowJo software (Tree Star, Oregon, USA). In vitro priming of specific multimer+CD8+ lymphocytes was detected by comparing to negative control stimulations.
Exemplary flow cytometry results after TUMAP-specific multimer staining for 3 peptides of the invention are shown in FIGS. 3A-3E together with corresponding negative controls.

Row | Substance | in vitro immunogenicity: donors | in vitro immunogenicity: wells
1 | FKBP10-002 (TYIGQGYII; listed as Homo sapiens) | ++++ (>= 70% = ++++) | + (<20% = +)
2 | G2E-002 (LYINKANIW; listed as Homo sapiens) | ++ (20%-49% = ++) | + (<20% = +)
3 | GLS-001 (DYIPQLAKF; listed as Homo sapiens) | ++++ (>= 70% = ++++) | + (<20% = +)
4 | HSPBP-001 (RYLEAGAAGLRW; listed as Homo sapiens) | + (<20% = +) | + (<20% = +)
5 | IQGAP1-001 (TYAALNSKATF; listed as Homo sapiens) | + (<20% = +) | + (<20% = +)
6 | KDM6B-001 (RYGGSFAEL; listed as Homo sapiens) | ++ (20%-49% = ++) | + (<20% = +)
7 | KFLEHTNFEF (listed as Homo sapiens) [SEQ ID No. 39] | ++ (20%-49% = ++) | + (<20% = +)
8 | KLRD-001 (QYLFPSFETF; listed as Homo sapiens) | ++++ (>= 70% = ++++) | + (<20% = +)
9 | KYLEKYYNL (listed as Homo sapiens) [SEQ ID No. 30] | ++++ (>= 70% = ++++) | ++ (20%-49% = ++)
10 | LAPTM5-001 (SYMEVPTYLNF; listed as Homo sapiens) | ++ (20%-49% = ++) | + (<20% = +)
11 | LYQILQGIVF (listed as Homo sapiens) [SEQ ID No. 161] | ++++ (>= 70% = ++++) | + (<20% = +)
12 | MREG-001 (RYLFVVDRL; listed as Homo sapiens) | ++++ (>= 70% = ++++) | ++++ (>= 70% = ++++)
13 | MUC16-001 (TYSEKTTLF; listed as Homo sapiens) | ++ (20%-49% = ++) | + (<20% = +)
14 | NUP153-001 (VYFKPSLTPSGEF; listed as Homo sapiens) | + (<20% = +) | + (<20% = +)
15 | OLFML2B-001 (YYGNTLVEF; listed as Homo sapiens) | ++++ (>= 70% = ++++) | ++ (20%-49% = ++)
16 | OLFML2B-002 (YYYGNTLVEF; listed as Homo sapiens) | ++ (20%-49% = ++) | + (<20% = +)
17 | PPTC-001 (HYFNTPFQL; listed as Homo sapiens) | ++++ (>= 70% = ++++) | ++ (20%-49% = ++)
18 | PSMA4-001 (LYIGWDKHYGF; listed as Homo sapiens) | ++++ (>= 70% = ++++) | + (<20% = +)
19 | PVRL1-001 (IYNPSMGVSVL; listed as Homo sapiens) | ++ (20%-49% = ++) | + (<20% = +)
20 | RASA2-001 (YYVDKLFNTI; listed as Homo sapiens) | ++ (20%-49% = ++) | + (<20% = +)
21 | RBPJ-001 (RYLHVEGGNF; listed as Homo sapiens) | ++ (20%-49% = ++) | + (<20% = +)
22 | RFMDGHITF (listed as Homo sapiens) [SEQ ID No. 25] | ++ (20%-49% = ++) | + (<20% = +)

Row | Substance | in vitro immunogenicity: donors | in vitro immunogenicity: wells
23 | RYISPDQLADL (listed as Homo sapiens) [SEQ ID No. 47] | +++ (50%-69% = +++) | + (<20% = +)
24 | RYLDSLKAIVF (listed as Homo sapiens) [SEQ ID No. 28] | ++++ (>= 70% = ++++) | + (<20% = +)
25 | RYLEKFYGL (listed as Homo sapiens) [SEQ ID No. 26] | ++++ (>= 70% = ++++) | + (<20% = +)
26 | RYTLHINTL (listed as Homo sapiens) [SEQ ID No. 43] | ++ (20%-49% = ++) | + (<20% = +)
27 | SAMD9L-001 (IYQRWKDLL; listed as Homo sapiens) | +++ (50%-69% = +++) | + (<20% = +)
28 | SLC-003 (RYFPTQALNF; listed as Homo sapiens) | + (<20% = +) | + (<20% = +)
29 | SMPDL3B-001 (IYNQIAELW; listed as Homo sapiens) | ++++ (>= 70% = ++++) | ++ (20%-49% = ++)
30 | SP14-001 (AYPDLNEIYRSF; listed as Homo sapiens) | + (<20% = +) | + (<20% = +)
31 | TPS-001 (IYTRVTYYL; listed as Homo sapiens) | ++++ (>= 70% = ++++) | ++ (20%-49% = ++)
32 | TRIM11-001 (IFLDYEAGHLSF; listed as Homo sapiens) | + (<20% = +) | + (<20% = +)
33 | TRPM2-001 (VYHSYLTIF; listed as Homo sapiens) | ++++ (>= 70% = ++++) | ++ (20%-49% = ++)
34 | TTC13-001 (RYLEYFEKI; listed as Homo sapiens) | ++++ (>= 70% = ++++) | +++ (50%-69% = +++)
35 | TUBGCP3-001 (FYQGIVQQF; listed as Homo sapiens) | ++ (20%-49% = ++) | + (<20% = +)
36 | TYKYVDINTF (listed as Homo sapiens) [SEQ ID No. 159] | +++ (50%-69% = +++) | + (<20% = +)
37 | TYNPEIYVI (listed as Homo sapiens) [SEQ ID No. 35] | ++++ (>= 70% = ++++) | ++ (20%-49% = ++)
38 | VFMKDGFFYF (listed as Homo sapiens) [SEQ ID No. 34] | ++ (20%-49% = ++) | + (<20% = +)
39 | VYTSWQIPQKF (listed as Homo sapiens) [SEQ ID No. 23] | + (<20% = +) | + (<20% = +)
40 | XPR-001 (VYPLALYGF; listed as Homo sapiens) | ++++ (>= 70% = ++++) | ++ (20%-49% = ++)
41 | YYTKGFALLNF (listed as Homo sapiens) [SEQ ID No. 29] | +++ (50%-69% = +++) | + (<20% = +)
42 | ZBED5-001 (AYKDKDISFF; listed as Homo sapiens) | ++++ (>= 70% = ++++) | + (<20% = +)
43 | ZNF697-001 (TYLTNHLRL; listed as Homo sapiens) | ++++ (>= 70% = ++++) | ++ (20%-49% = ++)
